Results published in ChEMBL document CHEMBL1130186, “Potent alpha 4 beta 1 peptide antagonists as potential anti-inflammatory agents” (J Med Chem, 1997).
*1 amine or outer side, *2 acyl side, *3 side chain or, on linkers, in order; H or OH if unused. Where a SMILES comes first, the peptide text is derived from it. Bridges are numbered along the chain shown (N, C = ends). [ ]: non-standard residue; d: D form. The star is where a group is joined. ξ: configuration not given here. X5 = O=C([C@H](Cc1c(F)c(F)c(O)c(F)c1F)N[*:1])[*:2]; X7 = O=C([C@H]1[C@@H](c2ccc(O)cc2)CCN1[*:1])[*:2]; Tyr(3-I) = N[C@@H](Cc1ccc(O)c(I)c1)C(=O)O; Oic(3aξ,7aξ) = O=C(O)[C@@H]1CC2CCCCC2N1; Fmoc = O=C(OCC1c2ccccc2-c2ccccc21)*; X1 = O=C(C(Cc1ccc(O)cc1)c1ccccc1)*; 2Naphthoyl = O=C(c1ccc2ccccc2c1)*; X4 = O=C(c1ccc(-c2ccc(O)cc2)cc1)*; Hyp = O=C(O)[C@@H]1C[C@@H](O)CN1; Cha = N[C@@H](CC1CCCCC1)C(=O)O; Aic = NC1(C(=O)O)Cc2ccccc2C1; Chg = N[C@H](C(=O)O)C1CCCCC1; Phg = N[C@H](C(=O)O)c1ccccc1; X2 = O=C(c1cccc2cc(O)ccc12)*; 3Amb = NCc1cccc(C(=O)O)c1; 3Abz = Nc1cccc(C(=O)O)c1; 4Abz = Nc1ccc(C(=O)O)cc1; 2Abz = Nc1ccccc1C(=O)O; Inp = O=C(O)C1CCNCC1; Bz = O=C(c1ccccc1)*; Ava = NCCCCC(=O)O; Sar = CNCC(=O)O

Tests used:
[1] = biological target: T1, Integrin alpha-4/beta-1 (Homo sapiens, UniProt P05556+P13612); test: Inhibition of fluorescently labeled alpha4-beta1 positive Ramos cells binding to immobilized VCAM-1.; type: cell-based
T1 sequence (P05556 whole entry): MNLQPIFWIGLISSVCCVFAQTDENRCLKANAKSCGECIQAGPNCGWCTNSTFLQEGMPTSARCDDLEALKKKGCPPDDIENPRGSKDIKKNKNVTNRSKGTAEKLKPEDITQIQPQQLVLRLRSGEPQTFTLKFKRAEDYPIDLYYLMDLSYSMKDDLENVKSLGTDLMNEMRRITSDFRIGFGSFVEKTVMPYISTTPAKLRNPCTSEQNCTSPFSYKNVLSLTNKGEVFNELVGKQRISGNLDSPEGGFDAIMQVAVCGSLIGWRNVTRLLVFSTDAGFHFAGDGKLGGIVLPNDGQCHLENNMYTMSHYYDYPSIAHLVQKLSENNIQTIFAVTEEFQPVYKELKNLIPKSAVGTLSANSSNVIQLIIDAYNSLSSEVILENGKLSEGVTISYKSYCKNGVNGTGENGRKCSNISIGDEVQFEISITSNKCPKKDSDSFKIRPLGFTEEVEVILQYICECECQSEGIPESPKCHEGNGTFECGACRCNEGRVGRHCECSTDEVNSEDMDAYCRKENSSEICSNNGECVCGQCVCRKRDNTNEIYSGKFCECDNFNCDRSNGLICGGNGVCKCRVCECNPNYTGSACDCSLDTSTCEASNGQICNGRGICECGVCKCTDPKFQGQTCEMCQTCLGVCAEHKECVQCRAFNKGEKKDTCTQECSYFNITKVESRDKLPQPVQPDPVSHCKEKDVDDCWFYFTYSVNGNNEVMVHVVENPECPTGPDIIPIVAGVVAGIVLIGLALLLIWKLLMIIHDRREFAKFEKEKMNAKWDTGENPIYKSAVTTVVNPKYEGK
T1 sequence (P13612 whole entry): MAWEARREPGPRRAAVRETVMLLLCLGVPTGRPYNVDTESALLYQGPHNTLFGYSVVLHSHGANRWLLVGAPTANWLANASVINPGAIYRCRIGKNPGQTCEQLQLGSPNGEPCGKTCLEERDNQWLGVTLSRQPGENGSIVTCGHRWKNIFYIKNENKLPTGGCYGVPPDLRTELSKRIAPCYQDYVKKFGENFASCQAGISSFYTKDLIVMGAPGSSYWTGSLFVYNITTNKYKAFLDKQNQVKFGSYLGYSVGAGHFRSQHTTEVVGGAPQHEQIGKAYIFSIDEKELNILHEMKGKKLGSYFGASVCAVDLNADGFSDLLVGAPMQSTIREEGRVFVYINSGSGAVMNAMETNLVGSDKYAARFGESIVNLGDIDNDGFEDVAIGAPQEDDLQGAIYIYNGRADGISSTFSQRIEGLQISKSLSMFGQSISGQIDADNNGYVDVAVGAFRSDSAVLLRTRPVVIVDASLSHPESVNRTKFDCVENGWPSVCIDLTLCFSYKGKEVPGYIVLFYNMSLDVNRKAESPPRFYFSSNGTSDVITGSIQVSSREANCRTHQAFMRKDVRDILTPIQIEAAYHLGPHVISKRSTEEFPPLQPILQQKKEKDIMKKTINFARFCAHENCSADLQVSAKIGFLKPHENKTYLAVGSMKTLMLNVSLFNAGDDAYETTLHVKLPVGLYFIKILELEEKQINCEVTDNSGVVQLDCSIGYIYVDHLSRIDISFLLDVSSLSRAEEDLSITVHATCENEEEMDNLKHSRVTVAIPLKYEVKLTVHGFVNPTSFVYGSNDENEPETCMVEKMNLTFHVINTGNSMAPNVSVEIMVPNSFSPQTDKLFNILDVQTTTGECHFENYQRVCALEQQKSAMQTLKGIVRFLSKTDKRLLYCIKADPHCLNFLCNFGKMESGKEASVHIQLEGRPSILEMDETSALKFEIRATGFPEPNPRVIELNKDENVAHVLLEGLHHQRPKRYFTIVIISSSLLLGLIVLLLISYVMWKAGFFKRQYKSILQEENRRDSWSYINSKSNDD

[2] = biological target: T1, Integrin alpha-4/beta-1; test: Inhibition of purified alpha-4 beta-1 binding to VCAM-1 was determined in an ELISA assay.; type: protein-complex assay

| SMILES | IC50 [1] | IC50 [2] |
| --- | --- | --- |
| CC(C)C[C@@H]1NC(=O)[C@H](C)NC(=O)[C@@H](NC(=O)[C@@H](N)Cc2ccc(O)cc2)CSSC[C@@H](C(=O)O)NC1=O (H-YCALC-OH; disulfide 2-5) | 10.5 µM | 0.034 µM |
| N[C@@H](Cc1ccc(O)cc1)C(=O)N[C@H]1CSSC[C@@H](C(=O)O)NC(=O)CCCCNC1=O (H-YC[Ava]C-OH; disulfide 2-4) | 17 µM | 0.41 µM |
| CC(=O)N[C@@H](Cc1ccc(O)cc1)C(=O)N[C@H]1CSSC[C@@H](C(=O)O)NC(=O)[C@H](c2ccccc2)NC(=O)[C@H](C)NC1=O (Ac-YCA[Phg]C-OH; disulfide 2-5) | 33 µM | 0.076 µM |
| CC(=O)N[C@@H](CCCN=C(N)N)C(=O)N[C@H]1CSSC[C@@H](C(=O)O)NC(=O)[C@@H]2CCCN2C(=O)[C@H](CC(=O)O)NC1=O (Ac-RCDPC-OH; disulfide 2-5) | 40 µM | 1.3 µM |
| CC[C@H](C)[C@@H]1NC(=O)[C@H](C)NC(=O)[C@@H](NC(=O)[C@@H](N)Cc2ccc(O)cc2)CSSC[C@@H](C(=O)O)NC1=O (H-YCAIC-OH; disulfide 2-5) | 0.94 µM | 0.023 µM |
| NCCCC[C@H](NC(=O)[C@@H](N)Cc1ccc(O)cc1)C(=O)N[C@H]1CSSC[C@@H](C(=O)O)NC(=O)[C@@H]2CCCN2C(=O)[C@H](CC(=O)O)NC1=O (H-YKCDPC-OH; disulfide 3-6) | 5 µM | 0.15 µM |
| N[C@@H](Cc1ccc(O)cc1)C(=O)N[C@H]1CSSC[C@@H](C(=O)O)NC(=O)c2ccc(cc2)NC1=O (H-YC[4Abz]C-OH; disulfide 2-4) | 4.2 µM | 0.16 µM |
| C[C@@H]1NC(=O)[C@@H](NC(=O)[C@@H](N)Cc2ccc(O)cc2)CSSC[C@@H](C(=O)O)NC(=O)C2(Cc3ccccc3C2)NC1=O (H-YCA[Aic]C-OH; disulfide 2-5) |  | 36 µM |
| C[C@@H]1NC(=O)[C@@H](NC(=O)[C@@H](N)Cc2ccc(O)cc2)CSSC[C@@H](C(=O)O)NC(=O)[C@H](CC2CCCCC2)NC1=O (H-YCA[Cha]C-OH; disulfide 2-5) | 25 µM | 0.14 µM |
| N=C(N)NCCC[C@H](NC(=O)[C@@H](N)Cc1ccc(O)cc1)C(=O)N[C@H]1CSSC[C@@H](C(=O)O)NC(=O)[C@@H]2CCCN2C(=O)[C@H](CCC(=O)O)NC1=O (H-YRCEPC-OH; disulfide 3-6) | 30 µM | 0.09 µM |
| O=C(N[C@H]1CSSC[C@@H](C(=O)O)NC(=O)[C@@H]2CCCN2C(=O)[C@H](CO)NC1=O)C1CCNCC1 (H-[Inp]CSPC-OH; disulfide 2-5) | 50 µM | 4.6 µM |
| CC(=O)N[C@@H](Cc1ccc(O)cc1)C(=O)N[C@H]1CSSC[C@@H](C(=O)O)NC(=O)[C@@H]2CCCN2C(=O)[C@H]([C@@H](C)O)NC1=O (Ac-YCTPC-OH; disulfide 2-5) | 0.32 µM | 0.005 µM |
| N=C(N)NCCC[C@H](NC(=O)[C@@H](N)Cc1ccc(O)cc1)C(=O)N[C@H]1CSSC[C@@H](C(=O)O)NC(=O)[C@@H]2CCCN2C(=O)[C@H](CC(N)=O)NC1=O (H-YRCNPC-OH; disulfide 3-6) | 7 µM | 0.04 µM |
| O=C(N[C@H]1CSSC[C@@H](C(=O)O)NC(=O)[C@@H]2CCCN2C(=O)[C@H](CO)NC1=O)c1cccc2cc(O)ccc12 (X2-CSPC-OH; disulfide 1-4) | 40 µM | 1.1 µM |
| N[C@H](Cc1ccc(O)cc1)C(=O)N[C@H]1CSSC[C@@H](C(=O)O)NC(=O)[C@@H]2CCCN2C(=O)[C@H](CO)NC1=O | 126 µM | 0.89 µM |
| N[C@@H](Cc1ccc(O)cc1)C(=O)N[C@H]1CSSC[C@@H](C(=O)O)NC(=O)c2ccccc2NC1=O (H-YC[2Abz]C-OH; disulfide 2-4) | 80 µM | 1.3 µM |
| CC(=O)N[C@@H](Cc1ccc(O)cc1)C(=O)N[C@H]1CSSC[C@@H](C(N)=O)NC(=O)[C@@H]2CCCN2C(=O)[C@H](C)NC1=O (Ac-YCAPC-NH2; disulfide 2-5) |  | 0.32 µM |
| C[C@@H]1NC(=O)[C@@H](NC(=O)[C@@H](N)Cc2ccc(O)cc2)CSSC[C@@H](C(=O)O)NC(=O)[C@H](Cc2ccccc2)NC1=O (H-YCAFC-OH; disulfide 2-5) | 182 µM | 2.8 µM |
| C[C@@H]1NC(=O)[C@@H]2CCCN2C(=O)[C@@H](NC(=O)[C@@H](N)Cc2ccc(O)cc2)CSSC[C@@H](C(=O)O)NC1=O (H-YCPAC-OH; disulfide 2-5) | 14 µM | 0.23 µM |
| O=C(N[C@H]1CSSC[C@@H](C(=O)O)NC(=O)[C@@H]2CCCN2C(=O)[C@H](CO)NC1=O)C(Cc1ccc(O)cc1)c1ccccc1 (some centres not stated) (X1-CSPC-OH; disulfide 1-4) | 2 µM | 0.013 µM |
| O=C(N[C@H]1CSSC[C@@H](C(=O)O)NC(=O)[C@@H]2CCCN2C(=O)[C@H](CO)NC1=O)c1ccc(-c2ccc(O)cc2)cc1 (X4-CSPC-OH; disulfide 1-4) | 120 µM | 1.65 µM |
| N[C@@H](Cc1ccccc1)C(=O)N[C@H]1CSSC[C@@H](C(=O)O)NC(=O)[C@@H]2CCCN2C(=O)[C@H](CO)NC1=O (H-FCSPC-OH; disulfide 2-5) | 15 µM | 1.5 µM |

| SMILES | IC50 [1] | IC50 [2] |
| --- | --- | --- |
| N[C@@H](Cc1ccc(O)cc1)C(=O)N[C@H]1CSSC[C@@H](C(=O)O)NC(=O)c2cccc(c2)CNC1=O (H-YC[3Amb]C-OH; disulfide 2-4) | 210 µM | 6 µM |
| N=C(N)NCCC[C@H](NC(=O)OCC1c2ccccc2-c2ccccc21)C(=O)N[C@H]1CSSC[C@@H](C(=O)O)NC(=O)[C@@H]2CCCN2C(=O)[C@H](CC(=O)O)NC1=O (Fmoc-RCDPC-OH; disulfide 2-5) | 15 µM | 0.13 µM |
| O=C(N[C@H]1CSSC[C@@H](C(=O)O)NC(=O)[C@@H]2CCCN2C(=O)[C@H](CO)NC1=O)c1ccc2ccccc2c1 (2Naphthoyl-CSPC-OH; disulfide 1-4) | 3.6 µM | 0.054 µM |
| NC(N)=NCCC[C@H](NC(=O)[C@@H](N)Cc1ccc(O)cc1)C(=O)N[C@H]1CSSC[C@@H](C(=O)O)NC(=O)[C@@H]2CCCN2C(=O)[C@H](CC(=O)O)NC1=O (H-YRCDPC-OH; disulfide 3-6) | 6 µM | 0.11 µM |
| CC(=O)N[C@@H](Cc1ccc(O)cc1)C(=O)N[C@H]1CSSC[C@@H](C(=O)O)NC(=O)[C@@H]2CCCN2C(=O)[C@H](C)NC1=O (Ac-YCAPC-OH; disulfide 2-5) | 0.31 µM | 0.004 µM |
| N[C@@H](Cc1ccc(O)cc1)C(=O)N[C@H]1CSSC[C@@H](C(=O)O)NC(=O)CNC1=O (H-YCGC-OH; disulfide 2-4) | 250 µM | 5.8 µM |
| O=C(N[C@H]1CSSC[C@@H](C(=O)O)NC(=O)[C@@H]2CCCN2C(=O)[C@H](CO)NC1=O)c1ccccc1 (Bz-CSPC-OH; disulfide 1-4) | 1.9 µM | 0.134 µM |
| N[C@@H](Cc1ccc(O)c(I)c1)C(=O)N[C@H]1CSSC[C@@H](C(=O)O)NC(=O)[C@@H]2CCCN2C(=O)[C@H](CO)NC1=O (H-[Tyr(3-I)]CSPC-OH; disulfide 2-5) | 0.2 µM | 0.004 µM |
| C[C@@H]1NC(=O)[C@@H](NC(=O)[C@@H](N)Cc2ccc(O)cc2)CSSC[C@@H](C(=O)O)NC(=O)[C@@H]2CC3CCCCC3N2C1=O (some centres not stated) (H-YCA[Oic(3aξ,7aξ)]C-OH; disulfide 2-5) | 4.7 µM | 0.02 µM |
| C[C@@H]1NC(=O)[C@@H](NC(=O)[C@@H](N)Cc2ccc(O)cc2)CSSC[C@@H](C(=O)O)NC(=O)[C@@H]2C[C@@H](O)CN2C1=O (H-YCA[Hyp]C-OH; disulfide 2-5) |  | 0.005 µM |
| CC(C)C[C@H](N)C(=O)N[C@@H](CCCNC(=N)N)C(=O)N[C@H]1CSSC[C@@H](C(=O)O)NC(=O)[C@@H]2CCCN2C(=O)[C@H](CC(=O)O)NC1=O (H-LRCDPC-OH; disulfide 3-6) | 250 µM | 21 µM |
| NC(N)=NCCC[C@H](NC(=O)[C@@H](N)Cc1ccccc1)C(=O)N[C@H]1CSSC[C@@H](C(=O)O)NC(=O)[C@@H]2CCCN2C(=O)[C@H](CC(=O)O)NC1=O (H-FRCDPC-OH; disulfide 3-6) | 100 µM | 2.1 µM |
| N[C@@H](Cc1c(F)c(F)c(O)c(F)c1F)C(=O)N[C@H]1CSSC[C@@H](C(=O)O)NC(=O)[C@@H]2CCCN2C(=O)[C@H](CO)NC1=O (H-[X5]CSPC-OH; disulfide 2-5) | 60 µM | 0.53 µM |
| NCCCC[C@H](N)C(=O)N[C@H]1CSSC[C@@H](C(=O)O)NC(=O)[C@@H]2CCCN2C(=O)[C@H](CC(=O)O)NC1=O (H-KCDPC-OH; disulfide 2-5) | 1000 µM | 250 µM |
| C[C@@H]1NC(=O)[C@@H](NC(=O)[C@@H](N)Cc2ccc(O)cc2)CSSC[C@@H](C(=O)O)NC(=O)[C@H](C2CCCCC2)NC1=O (H-YCA[Chg]C-OH; disulfide 2-5) |  | 0.23 µM |
| N[C@@H](Cc1ccc(O)cc1)C(=O)N[C@H]1CSSC[C@@H](C(=O)O)NC(=O)[C@H](CC2CCCCC2)NC1=O (H-YC[Cha]C-OH; disulfide 2-4) |  | 18 µM |
| NC(=O)[C@@H]1CSSC[C@H](NC(=O)[C@@H](N)CCCN=C(N)N)C(=O)N[C@@H](CC(=O)O)C(=O)N2CCC[C@H]2C(=O)N1 (H-RCDPC-NH2; disulfide 2-5) |  | 50 µM |
| NC(=O)[C@@H]1CSSC[C@H](NC(=O)[C@@H](N)Cc2ccc(O)cc2)C(=O)Nc2cccc(c2)C(=O)N1 (H-YC[3Abz]C-NH2; disulfide 2-4) |  | 12 µM |
| CC(=O)N1CC[C@H](c2ccc(O)cc2)[C@@H]1C(=O)N[C@H]1CSSC[C@@H](C(=O)O)NC(=O)[C@@H]2CCCN2C(=O)[C@H](CO)NC1=O (Ac-[X7]CSPC-OH; disulfide 2-5) |  | 0.004 µM |
| N[C@@H](Cc1ccc(O)cc1)C(=O)N[C@H]1CSSC[C@@H](C(=O)O)NC(=O)[C@H](C2CCCCC2)NC1=O (H-YC[Chg]C-OH; disulfide 2-4) |  | 115 µM |
| CC(=O)N[C@@H](Cc1ccc(O)cc1)C(=O)N[C@H]1CSSC[C@@H](C(=O)O)NC(=O)CNC(=O)[C@H](C)NC1=O (Ac-YCAGC-OH; disulfide 2-5) |  | 22 µM |
| CC(=O)N[C@@H](Cc1ccc(O)cc1)C(=O)N[C@H]1CSSC[C@@H](C(=O)O)NC(=O)CN(C)C(=O)[C@H](C)NC1=O (Ac-YCA[Sar]C-OH; disulfide 2-5) |  | 0.71 µM |
